Tests used:
[1] = Stability of drug substance alone in heat and humidity (severity test or the like); format: physicochemical; details: certain storage conditions such as a severity test
[2] = Calculation of proportion of crystals by near-infrared spectroscopy; format: physicochemical; details: Compound A hemifumarate after water was added to the crystals and dried (material used for Examples 4 to 15)
Protocol: As a method of calculating the proportion of crystals of Compound A hemifumarate in Compound A hemifumarate, for example, the spectrum is measured, as a near-infrared spectroscopy measurement, by a Fourier transform near-infrared spectrometer (MPA, Bruker Optics K. K.)(measurement range; 12500 cm^−1 to 5800 cm^−1, resolution; 8 cm^−1, number of scans; 32), and the obtained spectrum is secondary-differentiated (Savitzky-Golay convolution method), and can be analyzed using a near-infrared spectrum analysis software (for example, OPUS, Bruker Optics K. K.). The pharmaceutical composition for oral administration is powdered using a mortar and pestle to measure the spectrum. Before the spectrum measurement of the pharmaceutical composition for oral administration, spectra of preparations, in which crystals of Compound A hemifumarate are mixed in various proportions, are regression-analyzed by a partial least square method to create a calibration curve, and each spectrum obtained from the pharmaceutical composition for oral administration is interpolated into the calibration curve to calculate the proportion of crystals of Compound A hemifumarate.
With respect to the tablets (film coated tablets) prepared in Comparative Example 1, Example 1, Example 2, and Example 3, the proportion of crystals of Compound A hemifumarate after production was calculated by near-infrared spectroscopy. […]

[3] = tested on: EML4 (Echinoderm microtubule associated protein like-4)-ALK (Anaplastic lymphoma kinase) fusion protein; details: reported in Patent literature 1 (WO 2010/128659); cited from earlier work

SMILES	Stability of drug substance alone (in words) [1]	Proportion of crystals [2] [%]	Inhibitory activity of a kinase activity of EML4-ALK fusion protein [3]
CCc1nc(C(N)=O)c(Nc2ccc(N3CCC(N4CCN(C)CC4)CC3)c(OC)c2)nc1NC1CCOCC1 [Compound A hemifumarate]	stable in heat and humidity alone	62	–
CCc1nc(C(N)=O)c(Nc2ccc(N3CCC(N4CCN(C)CC4)CC3)c(OC)c2)nc1NC1CCOCC1 [Compound A, 6-Ethyl-3-({3-methoxy-4-[4-(4-methylpiperazin-1-yl)piperidin-1-yl]phenyl}amino)-5-(tetrahydro-2H-pyran-4-ylamino)pyrazine-2-carboxamide]	–	–	inhibitory activity
